In ChEMBL document CHEMBL1201862, “PubChem BioAssay data set” (2004):
Calls of active or inactive are those of the source.

Columns and labels:
[1] = target: T1, Aminopeptidase N (Plasmodium falciparum FcB1/Columbia, UniProt O96935); test: P. falciparum M1AAP inhibitors, biochemical, fluorogenic H-Leu-NHMec substrate, 1536-well (AID 1445); set-up: species or system Plasmodium falciparum 3D7, 3D7
T1 sequence (O96935 whole entry): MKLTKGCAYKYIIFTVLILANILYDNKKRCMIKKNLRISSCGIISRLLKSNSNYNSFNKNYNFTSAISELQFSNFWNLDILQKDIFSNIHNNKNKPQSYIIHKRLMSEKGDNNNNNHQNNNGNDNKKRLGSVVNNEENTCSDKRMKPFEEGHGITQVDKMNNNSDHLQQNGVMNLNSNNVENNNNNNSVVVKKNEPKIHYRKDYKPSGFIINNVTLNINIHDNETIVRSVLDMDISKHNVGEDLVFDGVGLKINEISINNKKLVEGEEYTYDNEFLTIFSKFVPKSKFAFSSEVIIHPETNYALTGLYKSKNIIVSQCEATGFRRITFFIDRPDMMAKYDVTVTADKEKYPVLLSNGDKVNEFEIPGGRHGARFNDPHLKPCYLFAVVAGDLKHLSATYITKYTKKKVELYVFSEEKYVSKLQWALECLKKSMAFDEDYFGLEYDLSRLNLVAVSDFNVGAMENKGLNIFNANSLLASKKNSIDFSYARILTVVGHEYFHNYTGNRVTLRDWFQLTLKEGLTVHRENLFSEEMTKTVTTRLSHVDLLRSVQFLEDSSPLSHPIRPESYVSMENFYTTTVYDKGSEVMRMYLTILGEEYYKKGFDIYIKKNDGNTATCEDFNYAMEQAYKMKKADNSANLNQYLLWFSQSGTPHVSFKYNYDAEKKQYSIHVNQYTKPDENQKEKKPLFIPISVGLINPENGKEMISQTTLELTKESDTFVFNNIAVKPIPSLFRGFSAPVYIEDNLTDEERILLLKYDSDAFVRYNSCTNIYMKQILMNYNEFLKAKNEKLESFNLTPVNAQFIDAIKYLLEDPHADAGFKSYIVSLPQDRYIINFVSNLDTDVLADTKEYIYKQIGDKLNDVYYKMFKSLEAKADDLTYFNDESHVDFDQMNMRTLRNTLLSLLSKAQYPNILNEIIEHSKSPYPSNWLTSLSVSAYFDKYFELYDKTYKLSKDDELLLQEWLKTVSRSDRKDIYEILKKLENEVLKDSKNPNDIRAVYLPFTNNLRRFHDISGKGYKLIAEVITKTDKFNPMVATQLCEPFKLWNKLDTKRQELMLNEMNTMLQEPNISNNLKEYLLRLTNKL

[2] = target: T2, Leucine aminopeptidase (Plasmodium falciparum 3D7, UniProt Q8IL11); test: P. falciparum M17LAP inhibitors, primary screen, biochemical, fluorogenic H-Leu-NHMec substrate, 1536-well (AID 1619); assay type: functional
T2 sequence (Q8IL11 whole entry): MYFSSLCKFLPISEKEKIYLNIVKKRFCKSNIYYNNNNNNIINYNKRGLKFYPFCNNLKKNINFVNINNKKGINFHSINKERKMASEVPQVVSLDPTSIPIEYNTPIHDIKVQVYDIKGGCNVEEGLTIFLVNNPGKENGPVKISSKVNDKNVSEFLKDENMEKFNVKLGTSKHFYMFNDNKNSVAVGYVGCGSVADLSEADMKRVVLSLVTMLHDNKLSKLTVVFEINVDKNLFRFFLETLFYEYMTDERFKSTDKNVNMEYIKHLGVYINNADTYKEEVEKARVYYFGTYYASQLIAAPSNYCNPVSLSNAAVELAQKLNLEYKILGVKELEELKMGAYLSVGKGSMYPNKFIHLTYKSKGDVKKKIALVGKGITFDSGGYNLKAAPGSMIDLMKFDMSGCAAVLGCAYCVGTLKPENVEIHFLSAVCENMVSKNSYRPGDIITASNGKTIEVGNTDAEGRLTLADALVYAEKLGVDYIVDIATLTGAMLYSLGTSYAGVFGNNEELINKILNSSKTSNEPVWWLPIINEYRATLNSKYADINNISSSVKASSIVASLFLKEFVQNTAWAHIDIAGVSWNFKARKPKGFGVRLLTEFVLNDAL

[3] = target: Cytochrome P450 3A4 (Homo sapiens, UniProt P08684); details: Potency;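 further: confirmatory qHTS run detecting inhibitors and substrates of CYP3A4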
Sequence of Cytochrome P450 3A4 (P08684 whole entry): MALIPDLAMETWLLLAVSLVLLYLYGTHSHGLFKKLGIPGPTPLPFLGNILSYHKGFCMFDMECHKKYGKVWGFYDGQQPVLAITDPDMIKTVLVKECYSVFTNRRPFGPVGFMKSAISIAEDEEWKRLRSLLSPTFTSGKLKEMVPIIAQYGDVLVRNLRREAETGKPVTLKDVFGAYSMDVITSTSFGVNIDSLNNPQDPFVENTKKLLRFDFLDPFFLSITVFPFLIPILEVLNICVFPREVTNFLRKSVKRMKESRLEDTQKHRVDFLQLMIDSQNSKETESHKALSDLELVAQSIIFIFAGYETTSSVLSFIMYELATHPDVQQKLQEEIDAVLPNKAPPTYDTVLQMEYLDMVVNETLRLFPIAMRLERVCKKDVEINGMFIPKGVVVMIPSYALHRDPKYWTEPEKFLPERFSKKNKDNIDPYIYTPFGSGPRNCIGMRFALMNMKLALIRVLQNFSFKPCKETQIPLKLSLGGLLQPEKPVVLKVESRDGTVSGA

[4] = target: T3, Caspase-6 (Homo sapiens, UniProt P55212); test: human caspase-6 inhibitors, dose response, biochemical, VEID-R110 fluorescence, cherry-pick (AID 720632)
T3 sequence (P55212 whole entry): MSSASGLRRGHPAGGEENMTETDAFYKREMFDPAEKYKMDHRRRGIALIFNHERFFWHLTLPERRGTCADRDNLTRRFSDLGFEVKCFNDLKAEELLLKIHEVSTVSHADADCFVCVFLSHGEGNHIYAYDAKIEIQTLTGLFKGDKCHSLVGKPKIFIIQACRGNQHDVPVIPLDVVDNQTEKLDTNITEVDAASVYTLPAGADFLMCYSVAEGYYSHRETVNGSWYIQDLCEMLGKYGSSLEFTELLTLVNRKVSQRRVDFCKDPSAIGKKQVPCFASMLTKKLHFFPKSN

[5] = target: Glyceraldehyde-3-phosphate dehydrogenase (Homo sapiens, UniProt P04406)
Sequence of Glyceraldehyde-3-phosphate dehydrogenase (P04406 whole entry): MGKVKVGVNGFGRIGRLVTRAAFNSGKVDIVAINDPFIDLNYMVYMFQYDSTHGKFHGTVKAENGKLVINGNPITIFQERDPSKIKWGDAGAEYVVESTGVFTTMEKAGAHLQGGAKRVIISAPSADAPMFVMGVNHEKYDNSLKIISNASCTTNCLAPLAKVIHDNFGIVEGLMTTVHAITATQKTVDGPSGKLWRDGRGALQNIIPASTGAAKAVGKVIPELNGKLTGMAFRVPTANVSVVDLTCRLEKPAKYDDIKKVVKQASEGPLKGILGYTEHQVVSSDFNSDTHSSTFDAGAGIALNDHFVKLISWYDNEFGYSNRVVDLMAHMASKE

[6] = HEK293T cytotoxicity, dose response, cytotoxicity control for miR-122 modulator project, cell-based, inhibitor set, cherry-pick, set 2 (AID 720697); assay type: functional
[7] = HepG2 cell cytotoxicity, dose response, cytotoxicity control, cherry-picked samples (AID 1159577); assay type: functional, cell-based
[8] = P. falciparum Dd2 growth inhibitors, dose response, SYBR Green, cherry-picked samples (AID 1159567); assay type: functional, cell-based
[9] = HEK293T cytotoxicity, dose response, cytotoxicity control for miR-122 modulator project, cell-based, activator set, cherry-pick (AID 720690); assay type: functional;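 further: HEK293T human cells scored for general mammalian cytotoxicity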
[10] = miR-122 activators in hepatoma reporter cells, dose response, cell-based, Huh7 psiCHECK-miR122, Renilla luciferase, cherry-picked (AID 651956); assay type: functional;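 further: huh7 hepatoma cells stably carrying a psiCHECK-2 miR-122 sensor plasmid; renilla luciferase signal reporting endogenous miR-122 activity after 48 h compound exposure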

Which results are given for `Cc1noc(NS(=O)(=O)c2ccc(NC(=O)CSc3n[nH]c4c5ccccc5nc-4n3)cc2)c1C`?
IC50 [1]: 21.9 µM (active); IC50 [2]: 2.57 µM (active)

With `CCOC(=O)c1oc2c(O)c(O)ccc2c(=O)c1-c1nncn1-c1ccccc1` as the compound, how does the IC50 [2] read?
Its IC50 is 6.58 µM (active).

With `CC(C)c1nc(N(C)S(C)(=O)=O)nc(-c2ccc(F)cc2)c1/C=C/C(O)CC(O)CC(=O)O` (stereo unspecified) as the compound, how does the AC50 [3] read?
The AC50 was 39.8 µM (inconclusive).

With `Cc1ccccc1Nc1nc(N)nc(COC(=O)c2ccc([N+](=O)[O-])o2)n1` as the compound, how does the AC50 [4] read?
The AC50 was 47 µM (active).

Which AC50 [3] does the source give for `CC(C)Cn1c(N)c(C(=O)COC(=O)c2cc(C(F)(F)F)nc3c(C(F)(F)F)cccc23)c(=O)n(C)c1=O` here?
Its AC50 is 3.16 µM (inconclusive).

With `OC(CN1CCNCC1)Cn1c2ccc(Br)cc2c2cc(Br)ccc21` (stereo unspecified) as the compound, how does the AC50 [3] read?
Its AC50 is 31.6 µM (inconclusive).

With `CC(=O)N1[C@H](C)C=C[C@]1(Cc1ccccc1)C(=O)NCCc1c[nH]c2ccccc12` as the compound, how does the AC50 [3] read?
Its AC50 is 1.58 µM (inconclusive).

For `Cc1cc(NS(=O)(=O)c2ccc(NC(=O)COc3ccccc3[N+](=O)[O-])cc2)no1`, which AC50 [4] is on record?
The AC50 was 10.5 µM (active).

With `O=C(O)CS(=O)(=O)c1cccc(C(=O)O)c1` as the compound, how does the IC50 [5] read?
Its IC50 is > 100 µM (not active).

For `Cc1ccc(N2C(=O)C(Cl)=C(N3CCN(c4ncccn4)CC3)C2=O)cc1`, which IC50 [5] is on record?
The IC50 was > 50 µM (inconclusive).

For `Clc1ccc(C2[C@H]3CN(CC4CCCCC4)[C@H](c4ccccc4)C34CC2(c2ccccc2)C4)cn1` (stereo partly specified), which AC50 [3] is on record?
The AC50 was 15.8 µM (inconclusive).

Which AC50 [3] does the source give for `C=C1C([C@@]2(C)C(OC(C)=O)CC(=O)O[C@@](C)(COC(C)=O)C2CC(=O)OC)C(OC=O)C(OC(=O)C(O)C(C)CC)[C@]2(C)C(c3ccoc3)CC(=O)C12O` (stereo partly specified) here?
Its AC50 is 10 µM (inconclusive).

With `N=C(CSc1nc(-c2ccccc2)c(-c2ccccc2)o1)NO` as the compound, how does the IC50 [2] read?
Its IC50 is 7.64 µM (active).

With `C[C@@H]1CN(C2=C(Cl)C(=O)N(c3ccnc(Cl)c3)C2=O)CCN1` as the compound, how does the IC50 [5] read?
The IC50 was > 50 µM (inconclusive).

Which AC50 [4] does the source give for `O=C(O)c1cc(S(=O)(=O)Nc2ccc3c[nH]nc3c2)ccc1Br` here?
Its AC50 is 14.5 µM (active).

With `COc1ccc(NC(=O)N2CCCCN3[C@@H](CO)[C@H](c4ccc(C#CCC(C)C)cc4)[C@@H]3C2)cc1` as the compound, how does the AC50 [6] read?
The AC50 was 11.7 µM (active).

What about the AC50 [7] of the same compound?
Its AC50 is 8.52 µM (active).

What about the AC50 [8] of the same compound?
Its AC50 is 0.491 µM (active).

And the AC50 [9]?
The AC50 was 11.6 µM (active).

What about the AC50 [10] of the same compound?
The AC50 was 3.18 µM (active).

For `CSc1nnc(-c2cc(Br)ccc2/N=C/c2c(C)nn(-c3ccccc3)c2O)c(O)n1`, which IC50 [2] is on record?
Its IC50 is 24.8 µM (active).

For `COc1ccc(C#Cc2ccc([C@H]3[C@H](CO)N4CCCCN(Cc5ccccc5F)C[C@@H]34)cc2)cc1`, which AC50 [7] is on record?
The AC50 was 10.9 µM (active).

What about the AC50 [8] of the same compound?
Its AC50 is 0.781 µM (active).

With `C[C@H]1CN([C@@H](C)CO)S(=O)(=O)c2ccc(C3=CCCCC3)cc2O[C@@H]1CN(C)C(=O)Cc1ccncc1` as the compound, how does the AC50 [7] read?
Its AC50 is > 39 µM (inactive).

And the AC50 [8]?
The AC50 was 3.13 µM (active).
